Among the data in ChEMBL document CHEMBL3046046, “Design, synthesis, and QSAR study of novel 2-(2,3-dioxo-2,3-dihydro-1H-indol-1-yl)-N-phenylacetamide derivatives as cytotoxic agents” (Med Chem Res, 2011) are IC50, viability and Activity values, retold here.

Data set [1] has as its system MCF7. Nature of the data set: Cytotoxicity against Homo sapiens (human) MCF7 cells after 72 hr by XTT assay. It counts as functional, cell-based. Particulars: MCF7, 72 h.
The subject of a further data set is Vero. Nature of the data set: Cytotoxicity against Chlorocebus aethiops (African green monkey) Vero cells after 72 hr by XTT assay. It counts as cell-based. To be noted: Chlorocebus sabaeus. A general note: Tetrazolium assays rely on reduction of a dye to a coloured formazan, in cell work by metabolically active cells.
Data set [2] can be described thus: Cytotoxicity against Chlorocebus aethiops (African green monkey) Vero cells assessed as cell survival after 72 hr by XTT assay. Particulars: chlorocebus sabaeus, read-out: Activity. Also noted: concentration or dose not given beside the values. It is filed as cell-based.
The test system of data set [3] is MCF7. Nature of the data set: Cytotoxicity against Homo sapiens (human) MCF7 cells assessed as cell survival after 72 hr by XTT assay. Further details: concentration or dose not given beside the values. It is filed as functional.

As for `O=C(CN1C(=O)C(=O)c2cc(Br)cc(Br)c21)Nc1ccc([N+](=O)[O-])cc1`, the IC50 came to 1960 nM with MCF7 [1] and 38.1 µM in the data set on Vero.

With `Cc1ccc(NC(=O)CN2C(=O)C(=O)c3cc(Br)cc(Br)c32)cc1`, the values for the IC50 in the data set with MCF7 [1] and with Vero were 2430 nM and 25 µM, respectively.

Consider `O=C(CN1C(=O)C(=O)c2cc(Br)cc(Br)c21)Nc1ccccc1[N+](=O)[O-]`, for which the IC50 in the data set with MCF7 [1] is 2040 nM; in the data set on Vero, 26 µM.

`Cc1ccccc1NC(=O)CN1C(=O)C(=O)c2cc(Br)cc(Br)c21`: the IC50 in the data set with MCF7 [1] was 3850 nM; with Vero, 29.9 µM.

`O=C(CN1C(=O)C(=O)c2ccccc21)Nc1ccc([N+](=O)[O-])cc1`: the viability at 72 h in data set [2] is above 50%. The Activity in the data set on MCF7 [3] was above 50%.

For `Cc1ccc(NC(=O)CN2C(=O)C(=O)c3ccccc32)cc1`, the viability at 72 h in data set [2] is above 50%. Further, the Activity in the data set with MCF7 [3] is above 50%.

In the case of `O=C(CN1C(=O)C(=O)c2ccccc21)Nc1ccccc1[N+](=O)[O-]`, the viability at 72 h in data set [2] was above 50%. Further, the Activity with MCF7 [3] is listed as above 50%.

As for `Cc1ccccc1NC(=O)CN1C(=O)C(=O)c2ccccc21`, the viability at 72 h in data set [2] was above 50%. In the data set with MCF7 [3], the Activity is recorded as above 50%.

Take `O=C(CN1C(=O)C(=O)c2cc(Br)cc(Br)c21)Nc1ccccc1`: the IC50 was 3910 nM in the data set with MCF7 [1] and 28.1 µM with Vero.

As for `O=C(CN1C(=O)C(=O)c2ccccc21)Nc1ccccc1`, the viability at 72 h in data set [2] is above 50%. Further, the Activity in the data set on MCF7 [3] is given as above 50%.

For the compound `CC[C@]1(O)C[C@@H]2CN(CCc3c([nH]c4ccccc34)[C@@](C(=O)OC)(c3cc4c(cc3OC)N(C)[C@H]3[C@@](O)(C(=O)OC)[C@H](OC(C)=O)[C@]5(CC)C=CCN6CC[C@]43[C@@H]65)C2)C1` [VINBLASTINE], the values for the IC50 with MCF7 [1] and in the data set on Vero were 1900 nM and 27.1 µM, respectively.

The IC50 is the concentration that gives 50% inhibition.
